Converted amounts (≈) assume the structure as drawn. Where two headings read alike, the source gives them in different places.
What was measured:
[1] = test system: Streptococcus pyogenes MB 5406; experiment: MIC, liquid turbidimetric microtiter method in brain heart infusion broth; type: cell-based; conditions: MB5406
Source text: (§1) The antibacterial activity of 9-deoxo-9(Z)-hydroxyiminoerythromycin A (II) against a panel of aerobic Gram positive and negative bacteria is shown in the following Table. The assay employs a liquid turbidimetric microtiter method for determination of the minimum inhibitory concentration (MIC) in brain heart infusion broth. […] The MIC is generally not an absolute value but rather a concentration range that falls within a two-fold dilution limit. Generally twelve two-fold dilutions of the test compound are employed with the initial concentration set at 128 mcg/ml.

[2] = test system: Enterococcus faecalis MB 5407; experiment: as above; type: cell-based; conditions: MB5407
Source text: as §1

[3] = test system: Streptococcus viridans CL 2943; experiment: as above; type: cell-based; conditions: CL2943
Source text: as §1

[4] = test system: Yersinia enterocoltica CL 1598; experiment: as above; type: cell-based; conditions: CL1598
Source text: as §1

[5] = test system: Steptococcus pneumoniae CL 2883; experiment: as above; type: cell-based
Source text: as §1

[6] = test system: Staphylococcus aureus MB 2865; experiment: as above; type: cell-based; conditions: MB2865
Source text: as §1

[7] = test system: Streptococcus pyogenes MB 2874; experiment: as above; type: cell-based; conditions: MB2874
Source text: as §1

[8] = test system: Staphylococcus epidermidis MB 5414; experiment: as above; type: cell-based; conditions: MB5414
Source text: as §1

[9] = test system: Klebsiella pneumoniae MB4005; experiment: as above; type: cell-based
Source text: as §1

[10] = test system: Staphylococcus haemolyticus MB 5412; experiment: as above; type: cell-based; conditions: MB5412
Source text: as §1

[11] = test system: Streptococcus agalactiae CL 1343; experiment: as above; type: cell-based; conditions: CL1343
Source text: as §1

[12] = test system: Enterococcus faecium MB 5416; experiment: as above; type: cell-based; conditions: MB5416
Source text: as §1

[13] = test system: Pseudomonas stutzeri MB 1231; experiment: as above; type: cell-based; conditions: Stutzerimonas stutzeri, MB1231
Source text: (§2) The assay employs a liquid turbidimetric microtiter method for determination of the minimum inhibitory concentration (MIC) in brain heart infusion broth. […] The MIC is generally not an absolute value but rather a concentration range that falls within a two-fold dilution limit.

Escherichia coli MB 4926 = experiment: as above; type: cell-based; conditions: MB4926
Source text: as §2

Escherichia coli MB 2884 = experiment: as above; type: cell-based; conditions: MB2884
Source text: as §2

[14] = test system: panel of aerobic Gram positive and negative bacteria; experiment: antibacterial activity in vitro against a panel of bacteria; type: cell-based
Source text: as §1

[15] = test system: Gram-positive microorganisms, e.g. Staphylococcus aureaus and Streptococcus pyogenes, and certain Gram-negative microorganisms; experiment: in vivo antibacterial activity, infected mice treated orally or subcutaneously
Source text: Extrapolation of such in vivo tests to support for human utility for macrolide compounds is likewise taught in U.S. Pat. No. 4,518,590, cited above.

[16] = isomer conversion under the MIC assay conditions; type: physicochemical
Source text: as §1

[17] = Streptococcus pyogenes MB 5406, brain heart infusion broth, read-out: MIC
[18] = Enterococcus faecalis MB 5407, brain heart infusion broth, read-out: MIC
[19] = Streptococcus viridans CL 2943, brain heart infusion broth, read-out: MIC
[20] = Yersinia enterocoltica CL 1598, brain heart infusion broth, read-out: MIC
[21] = Steptococcus pneumoniae CL 2883, brain heart infusion broth, read-out: MIC
[22] = Staphylococcus aureus MB 2865, brain heart infusion broth, read-out: MIC
[23] = Streptococcus pyogenes MB 2874, brain heart infusion broth, read-out: MIC
[24] = Staphylococcus epidermidis MB 5414, brain heart infusion broth, read-out: MIC
[25] = Klebsiella pneumoniae MB4005, brain heart infusion broth, read-out: MIC
[26] = Staphylococcus haemolyticus MB 5412, brain heart infusion broth, read-out: MIC
[27] = Streptococcus agalactiae CL 1343, brain heart infusion broth, read-out: MIC
[28] = Enterococcus faecium MB 5416, brain heart infusion broth, read-out: MIC

Structure (SMILES)	MIC [1, 17]	MIC [2, 18]	MIC [3, 19]	MIC [4, 20]	MIC [5, 21]	MIC [6, 22]	MIC [7, 23]	MIC [8, 24]	MIC [9, 25]	MIC [10, 26]	MIC [11, 27]	MIC [12, 28]	MIC [13]	MIC (Escherichia coli MB 4926)	MIC (Escherichia coli MB 2884)	further results
CC[C@H]1OC(=O)[C@H](C)[C@@H](O[C@H]2C[C@@](C)(OC)[C@@H](O)[C@H](C)O2)[C@H](C)[C@@H](O[C@@H]2O[C@H](C)C[C@H](N(C)C)[C@H]2O)[C@](C)(O)C[C@@H](C)/C(=N\O)[C@H](C)[C@@H](O)[C@]1(C)O [(III), 9-Deoxo-9(E)-hydroxyiminoerythromycin A]	16 µg/mL (≈ 21.4 µM)	0.5 µg/mL (≈ 0.668 µM)	≤ 0.06 µg/mL	16 µg/mL (≈ 21.4 µM)	0.12 µg/mL (≈ 0.16 µM)	0.25 µg/mL (≈ 0.334 µM)	≤ 0.06 µg/mL	0.12 µg/mL (≈ 0.16 µM)	32 µg/mL (≈ 42.7 µM)	0.12 µg/mL (≈ 0.16 µM)	≤ 0.06 µg/mL	0.12 µg/mL (≈ 0.16 µM)	1 µg/mL (≈ 1.34 µM)	0.25 µg/mL (≈ 0.334 µM)	32 µg/mL (≈ 42.7 µM)	–
CC[C@H]1OC(=O)[C@H](C)[C@@H](O[C@H]2C[C@@](C)(OC)[C@@H](O)[C@H](C)O2)[C@H](C)[C@@H](O[C@@H]2O[C@H](C)C[C@H](N(C)C)[C@H]2O)[C@](C)(O)C[C@@H](C)C(=O)[C@H](C)[C@@H](O)[C@]1(C)O [(I), Erythromycin A]	–	–	–	–	–	–	–	–	–	–	–	–	≤ 0.06 µg/mL	0.25 µg/mL (≈ 0.341 µM)	16 µg/mL (≈ 21.8 µM)	MIC ([1]; Streptococcus pyogenes): 16 µg/mL (≈ 21.8 µM); MIC ([2]; Enterococcus faecalis): 1 µg/mL (≈ 1.36 µM); MIC ([3]; Streptococcus viridans): ≤ 0.06 µg/mL; MIC ([4]; Yersinia): 32 µg/mL (≈ 43.6 µM); MIC [5]: ≤ 0.06 µg/mL; MIC ([6]; Staphylococcus aureus): 0.25 µg/mL (≈ 0.341 µM); MIC ([7]; Streptococcus pyogenes): ≤ 0.06 µg/mL; MIC ([8]; Staphylococcus epidermidis): 0.12 µg/mL (≈ 0.164 µM); MIC ([9]; Klebsiella pneumoniae, MB4005): 32 µg/mL (≈ 43.6 µM); MIC ([10]; Staphylococcus haemolyticus): 0.12 µg/mL (≈ 0.164 µM); MIC ([11]; Streptococcus agalactiae): ≤ 0.06 µg/mL; MIC ([12]; Enterococcus faecium): 0.12 µg/mL (≈ 0.164 µM)
CC[C@H]1OC(=O)[C@H](C)[C@@H](O[C@H]2C[C@@](C)(OC)[C@@H](O)[C@H](C)O2)[C@H](C)[C@@H](O[C@@H]2O[C@H](C)C[C@H](N(C)C)[C@H]2O)[C@](C)(O)C[C@@H](C)/C(=N/O)[C@H](C)[C@@H](O)[C@]1(C)O [(II), 9-Deoxo-9(Z)-hydroxyiminoerythromycin A]	32 µg/mL (≈ 42.7 µM)	2 µg/mL (≈ 2.67 µM)	≤ 0.06 µg/mL	32 µg/mL (≈ 42.7 µM)	≤ 0.06 µg/mL	0.25 µg/mL (≈ 0.334 µM)	≤ 0.06 µg/mL	0.12 µg/mL (≈ 0.16 µM)	32 µg/mL (≈ 42.7 µM)	0.12 µg/mL (≈ 0.16 µM)	≤ 0.06 µg/mL	0.25 µg/mL (≈ 0.334 µM)	≤ 0.06 µg/mL	0.5 µg/mL (≈ 0.668 µM)	16 µg/mL (≈ 21.4 µM)	activity in vitro (in words) ([14]; MIC panel, compared with (III) and erythromycin A (I)): comparable with the activities of the known compounds 9-deoxo-9(E)-hydroxyiminoerythromycin A (III) and erythromycin A (I); in vitro activity against Gram-positive and certain Gram-negative microorganisms ([14]; e.g. Staphylococcus aureas, Streptococcus pyogenes, certain Gram-negative cocci): exhibits in vitro activity against a variety of Gram-positive microorganisms, e.g. Staphylococcus aureas and Streptococcus pyogenes, and against certain Gram-negative microorganisms; in vivo activity compared with in vitro activity ([15]; as regards susceptible organisms): more limited than its in vitro activity; in vivo activity ([15]; oral and parenteral routes): active in vivo versus a variety of Gram-positive microorganisms, e.g. Staphylococcus aureaus and Streptococcus pyogenes, and also certain Gram-negative microorganisms; conversion of (Z)isomer to (E)isomer [16]: An undetermined fraction of the (Z)isomer is converting

— US5912331A, “Process for the preparation of 9-deoxo-9(Z)-hydroxyiminoerythromycin A” (Merck & Co., Inc., priority 1991, dated 1999)
